One experiment concerns the target EGFRΔ19del/T790M/C797S (Homo sapiens, UniProt P00533, T790M/C797S, form not given). Nature of the experiment: EGFR Δ19del/T790M/C797S kinase test (mobility variation analysis, Caliper EZ Reader). It is filed as biochemical. To be noted: kinase enzymatic activity, Table 1. How it is done:
(§1) Mobility variation analysis was performed to determine the affinity of the compound for EGFRΔ19del/T790M/C797S, EGFR WT and IGF1R. The enzymatic reaction scheme is as follows:
(§2) 1. Prepare 1*kinase buffer as follows.
(§3) 3. […] Prepare 2.5-fold final concentration of kinase solution with 1×Kinase buffer.
(§4) 4. Add 10 μL of 2.5-fold final concentration of kinase solution to the compound well and the positive control well; add 10 μL of 1×Kinase buffer to the negative control well.
(§5) 5. Centrifuge at 1000 rpm for 30 s, shake the reaction plate for well mixing, and then incubate at room temperature for 10 minutes.
(§6) 6. Prepare a mixture of ATP and Kinase substrate at 5/3-fold final concentration with 1×Kinase buffer.
(§7) 8. Centrifuge the 384-well plate at 1000 rpm for 30 s, shake it well and then incubate it at room temperature for corresponding time.
(§8) 9. Add 30 μL of stop detection solution to stop the kinase reaction, centrifuge at 1000 rpm for 30 s, and shake it well.
(§9) 10. Read conversion rate with Caliper EZ Reader.
(§10) % Inhibition=((Conversion%_max−Conversion%_sample)/(Conversion%_max−Conversion%_min))*100
(§11) Wherein: Conversion%_sample is the sample conversion rate reading; Conversion%_min: Mean value of negative control wells, representing the conversion rate reading of wells without enzymatic activity; Conversion%_max: Mean value of positive control wells, representing the conversion rate reading of wells without compound inhibition.
(§12) The dose-effect curve was fitted with concentration log value as X-axis and percentage inhibition rate as Y-axis. GraphPad Prism 5 analysis software was used for fitting Log (inhibitor) vs. response—Variable slope with the dose-effect curve to obtain IC50 value of enzymatic activity for each compound.
(§13) The calculation formula is as Y-Bottom+(Top-Bottom)/(1+10^((Log IC50−X)*HillSlope)).

Another experiment relates to A431. Nature of the experiment: A431 cell proliferation assay (CellTiter Glo, 72 hours). It is filed as cell-based. To be noted: cell proliferation, A431, 72 hours, Table 2, read-out: A431 IC50. The method, then: (§14) Cell line: Ba/F3 cells with EGFR Δ19del/T790M/C797S mutation gene stably overexpressed named Ba/F3-Δ119del/T90M/C797S, and A431 and Ba/F3-EGFR wild-type cell line.
RPMI 1640 and 10% FBS and 1% PS; DMEM and 10% FBS and 1% PS.
a) Dilute the test compound (20 mM stock solution) to 10 mM with 100% DMSO as the starting concentration, and then serially dilute 3 times with a “9+0” concentration in 96-well dilution plate (Cat #P-05525, Labcyte);
b) Dilute compound solution thereof to 1:100 (1:20 for comparative compound 1 and compounds 1-38) in medium to prepare 10-fold working solution;
(§15) a) Centrifuge the growth cells in logarithmic phase at 1000 rpm for 5 minutes, resuspend the cells in culture medium, and then count the cells;
(§16) b) Inoculate the cells into a 96-well cell culture plate with a density of 2000 cells/well;
a) Compounds prepared at step 2 were added to cell plate with 15 μl per well, the final concentrations were 1000, 333, 111.1, 37, 12.3, 4.1, 1.4, 0.5, 0.2 and 0 nM, and the final concentration of DMSO was 0.1%. The blank control well was a culture medium (0.1% DMSO) (the blank control well of comparative compound 1 and compounds 1-38 was a culture medium (0.5% DMSO).
(§17) b) Incubate cells in an incubator for another 72 hours.
(§18) a) Take out the 96-well cell culture plate and add 50 μl CTG reagent (CellTiter Glo kit, promega, Cat #G7573);
(§19) b) Shake the plate for 2 minutes and let cool at room temperature for 10 minutes;
(§20) c) Read luminous signal value with PerkinElmer reader,
(§21) Analysis of Experimental Data
(§22) The data were analyzed by GraphPad Prism 6.0 software to obtain the fitting curve of compound activity.
Fitting compound IC50 from nonlinear regression equation:
(§23) Y=Min+(Max−Min)/(1+10^((Log IC50−X)*slope));
(§24) X: Logarithm of compound concentration; Y: luminous signal.

In experiment [1] the target is Ba/F3 cells with EGFR Δ19del/T790M/C797S mutation gene stably overexpressed (Homo sapiens, UniProt P00533, T790M/C797S, cells depend on it, form not given). Nature of the experiment: Ba/F3-Δ19del/T790M/C797S cell proliferation assay (CellTiter Glo, 72 hours). It is filed as cell-based. To be noted: Table 2, read-out: EGFR Δ19del/T790M/C797S IC50. How it is done: as §14, §15, §16, §17, §18, §19, §20, §21, §22, §23, §24
Chain of Ba/F3 cells with EGFR Δ19del/T790M/C797S mutation gene stably overexpressed (P00533 with tags, fused parts or gaps DEL746-750/T790M/C797S, form open): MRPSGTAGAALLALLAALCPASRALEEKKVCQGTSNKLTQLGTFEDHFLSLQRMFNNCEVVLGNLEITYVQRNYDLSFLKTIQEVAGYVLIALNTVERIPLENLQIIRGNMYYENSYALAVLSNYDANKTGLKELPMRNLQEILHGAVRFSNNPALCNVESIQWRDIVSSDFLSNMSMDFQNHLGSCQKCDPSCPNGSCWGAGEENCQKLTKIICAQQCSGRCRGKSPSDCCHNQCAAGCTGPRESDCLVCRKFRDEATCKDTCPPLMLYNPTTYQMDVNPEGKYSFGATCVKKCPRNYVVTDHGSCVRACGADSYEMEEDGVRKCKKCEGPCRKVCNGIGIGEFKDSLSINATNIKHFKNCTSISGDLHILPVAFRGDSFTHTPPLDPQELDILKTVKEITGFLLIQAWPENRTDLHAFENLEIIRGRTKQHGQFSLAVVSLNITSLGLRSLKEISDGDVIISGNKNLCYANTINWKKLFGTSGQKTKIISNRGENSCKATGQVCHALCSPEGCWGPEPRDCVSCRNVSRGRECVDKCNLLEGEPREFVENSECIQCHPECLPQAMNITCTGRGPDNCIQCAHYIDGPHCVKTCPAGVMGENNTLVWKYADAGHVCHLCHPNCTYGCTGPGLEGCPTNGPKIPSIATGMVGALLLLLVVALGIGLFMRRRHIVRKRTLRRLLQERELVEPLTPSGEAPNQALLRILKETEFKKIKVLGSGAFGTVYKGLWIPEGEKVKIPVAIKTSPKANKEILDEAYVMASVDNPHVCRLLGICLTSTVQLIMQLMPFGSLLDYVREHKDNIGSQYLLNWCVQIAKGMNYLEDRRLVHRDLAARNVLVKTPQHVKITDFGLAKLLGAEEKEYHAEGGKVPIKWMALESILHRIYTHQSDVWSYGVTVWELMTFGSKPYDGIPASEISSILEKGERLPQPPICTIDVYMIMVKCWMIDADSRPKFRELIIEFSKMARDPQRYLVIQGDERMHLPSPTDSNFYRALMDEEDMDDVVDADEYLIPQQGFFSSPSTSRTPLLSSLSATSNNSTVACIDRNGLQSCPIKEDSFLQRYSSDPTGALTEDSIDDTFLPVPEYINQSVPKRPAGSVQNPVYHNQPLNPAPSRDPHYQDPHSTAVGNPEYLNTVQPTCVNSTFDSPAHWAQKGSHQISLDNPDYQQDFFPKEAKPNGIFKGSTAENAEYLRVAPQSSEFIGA

The next experiment addresses IGF1R (Homo sapiens, UniProt P08069). The experiment in a line: IGF1R kinase test (mobility variation analysis, Caliper EZ Reader). In kind it is biochemical. To be noted: kinase enzymatic activity, Table 1; read-out: EGFR IGF1R IC50. How it is done:
as §1, §2
2. Preparation of compound concentration gradient: The test compound was tested with an initial concentration of 3000 nM (300 nM for some triple mutations and 100 nM for others), diluted in a 384 source plate (96-well plate for comparative compound 1 and compounds 1-38) to a 100% DMSO solution with 100-fold final concentration, and the compound is 3-fold diluted with Precision to 10 concentrations. A dispenser Echo 550 was used to transfer 250 nL 100-fold final concentration of the compound to the target plate OptiPlate-384F.
3. Prepare 2.5-fold final concentration (5-fold for comparative compound 1 and compounds 1-38) of kinase solution with 1×Kinase buffer. Following steps should also be carried out for comparative compound 1 and compounds 1-38: Add each prepared intermediate dilution compounds to the compound wells of 384-well plate respectively, and test the repeated wells of each concentration; add 5% DMSO of 5 plates into the negative control well and the positive control well respectively. Prepare 2.5-fold final concentration of kinase solution with 1×Kinase buffer.
as §4, §5, §6
7. Add 15 μL mixture of 5/3-fold (2.5-fold for comparative compound 1 and compounds 1-38) final concentration of ATP and substrate to start reaction.
as §7, §8, §9, §10, §11, §12, §13

In a further experiment the target is EGFR WT (Homo sapiens, UniProt P00533). Nature of the experiment: EGFR WT kinase test (mobility variation analysis, Caliper EZ Reader). It is filed as biochemical. To be noted: kinase enzymatic activity, Table 1. The method, then:
as §1, §2, §3, §4, §5, §6, §7, §8, §9, §10, §11, §12, §13

Read-outs that look alike come from different tables or passages of the source.

Chain of EGFR WT (P00533 25-1210): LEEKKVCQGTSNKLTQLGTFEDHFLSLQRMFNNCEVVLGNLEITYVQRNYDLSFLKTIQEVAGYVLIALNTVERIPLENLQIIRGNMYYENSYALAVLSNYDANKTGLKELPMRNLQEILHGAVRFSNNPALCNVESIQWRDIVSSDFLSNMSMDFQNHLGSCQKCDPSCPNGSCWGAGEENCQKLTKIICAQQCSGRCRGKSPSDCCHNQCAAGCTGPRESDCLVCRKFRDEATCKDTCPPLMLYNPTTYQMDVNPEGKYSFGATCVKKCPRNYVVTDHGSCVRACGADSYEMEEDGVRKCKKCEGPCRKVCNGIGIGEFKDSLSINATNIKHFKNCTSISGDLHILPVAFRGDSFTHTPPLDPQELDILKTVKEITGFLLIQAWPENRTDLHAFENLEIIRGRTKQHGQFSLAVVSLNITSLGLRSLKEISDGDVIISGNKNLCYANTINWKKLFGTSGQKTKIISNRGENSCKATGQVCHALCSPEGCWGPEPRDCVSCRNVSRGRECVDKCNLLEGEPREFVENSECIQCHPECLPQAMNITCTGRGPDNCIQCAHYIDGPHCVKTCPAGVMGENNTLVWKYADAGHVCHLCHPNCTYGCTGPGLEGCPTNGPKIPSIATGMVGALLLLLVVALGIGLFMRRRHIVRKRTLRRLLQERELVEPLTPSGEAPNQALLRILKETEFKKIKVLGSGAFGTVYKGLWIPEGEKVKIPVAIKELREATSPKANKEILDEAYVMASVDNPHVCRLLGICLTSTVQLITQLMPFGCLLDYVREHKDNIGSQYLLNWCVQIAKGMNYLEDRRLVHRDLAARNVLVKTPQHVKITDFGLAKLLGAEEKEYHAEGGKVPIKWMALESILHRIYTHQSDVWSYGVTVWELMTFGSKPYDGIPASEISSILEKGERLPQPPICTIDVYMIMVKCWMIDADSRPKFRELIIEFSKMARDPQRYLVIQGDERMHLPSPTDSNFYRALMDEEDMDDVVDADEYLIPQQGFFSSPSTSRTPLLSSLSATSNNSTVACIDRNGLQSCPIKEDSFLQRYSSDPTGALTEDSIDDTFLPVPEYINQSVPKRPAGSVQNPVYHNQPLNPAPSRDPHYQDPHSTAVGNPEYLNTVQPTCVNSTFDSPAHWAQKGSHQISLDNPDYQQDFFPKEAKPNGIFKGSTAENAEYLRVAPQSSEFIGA
Chain of IGF1R (P08069 31-1367, species assumed): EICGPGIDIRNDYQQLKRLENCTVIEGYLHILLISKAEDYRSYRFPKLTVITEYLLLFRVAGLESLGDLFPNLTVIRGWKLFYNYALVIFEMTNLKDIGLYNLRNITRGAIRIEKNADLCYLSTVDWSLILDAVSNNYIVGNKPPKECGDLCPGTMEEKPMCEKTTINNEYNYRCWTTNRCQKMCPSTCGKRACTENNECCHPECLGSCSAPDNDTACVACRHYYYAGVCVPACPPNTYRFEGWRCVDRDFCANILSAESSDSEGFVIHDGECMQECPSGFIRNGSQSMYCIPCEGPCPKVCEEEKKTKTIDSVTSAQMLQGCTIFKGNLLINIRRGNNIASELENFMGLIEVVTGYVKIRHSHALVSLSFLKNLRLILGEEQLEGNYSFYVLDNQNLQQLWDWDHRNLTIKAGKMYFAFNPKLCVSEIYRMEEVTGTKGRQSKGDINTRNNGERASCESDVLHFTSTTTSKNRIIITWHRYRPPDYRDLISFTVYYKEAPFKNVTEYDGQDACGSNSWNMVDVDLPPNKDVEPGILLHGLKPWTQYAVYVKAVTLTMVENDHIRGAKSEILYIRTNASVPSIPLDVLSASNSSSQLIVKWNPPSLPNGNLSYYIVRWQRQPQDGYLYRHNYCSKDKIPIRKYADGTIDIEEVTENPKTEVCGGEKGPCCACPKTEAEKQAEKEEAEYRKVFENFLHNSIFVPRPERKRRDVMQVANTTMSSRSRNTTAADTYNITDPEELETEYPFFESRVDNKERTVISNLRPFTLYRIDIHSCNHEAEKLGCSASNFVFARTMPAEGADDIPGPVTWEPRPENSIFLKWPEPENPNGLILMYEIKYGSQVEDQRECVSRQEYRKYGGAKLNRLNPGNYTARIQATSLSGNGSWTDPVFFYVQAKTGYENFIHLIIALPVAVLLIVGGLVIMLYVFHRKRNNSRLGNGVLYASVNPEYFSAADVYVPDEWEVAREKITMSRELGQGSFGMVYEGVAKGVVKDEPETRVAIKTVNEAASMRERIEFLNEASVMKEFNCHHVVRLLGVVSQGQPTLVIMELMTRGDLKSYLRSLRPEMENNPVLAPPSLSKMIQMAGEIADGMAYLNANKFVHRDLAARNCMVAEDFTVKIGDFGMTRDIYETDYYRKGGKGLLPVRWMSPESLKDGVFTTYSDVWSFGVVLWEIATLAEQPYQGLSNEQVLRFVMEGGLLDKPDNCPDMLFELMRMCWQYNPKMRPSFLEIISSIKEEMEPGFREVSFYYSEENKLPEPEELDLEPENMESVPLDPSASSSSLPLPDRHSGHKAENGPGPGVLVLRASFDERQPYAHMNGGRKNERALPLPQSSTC
Chain of EGFRΔ19del/T790M/C797S (P00533 with tags, fused parts or gaps DEL746-750/T790M/C797S, form open): as the sequence (P00533 with tags, fused parts or gaps DEL746-750/T790M/C797S, form open) above

For the compound `CCc1cc(Nc2ncc(Br)c(Nc3ccc(-c4cnn(C)n4)c(F)c3P(C)(C)=O)n2)c(OC)cc1N1CCC(N2CCN(C)CC2)CC1` [Compound 84, (6-((5-Bromo-2-((5-ethyl-2-methoxy-4-(4-(4-methylpiperazin-1-yl)piperidin-1-yl)phenyl)amino)pyrimidin-4-yl)amino)-2-fluoro-3-(2-methyl-2H-1,2,3-triazol-4-yl)phenyl)dimethylphosphine oxide], the results for the IC50 on EGFRΔ19del/T790M/C797S, with A431 and at IGF1R were 0.0001 µM, 1.21 µM and 0.0549 µM, respectively. Also, the GI50 in experiment [1] was 0.0058 µM.

As for `CCc1cc(Nc2ncc(Cl)c(Nc3ccc(-c4nn(C)cc4C#N)cc3P(C)(C)=O)n2)c(OC)cc1N1CCC(N2CCN(C)CC2)CC1` [Compound 57], the results for the half-inhibitory concentration (IC50) against EGFRΔ19del/T790M/C797S, on IGF1R and on EGFR WT were 0.0004 µM, 0.196 µM and 0.0139 µM, respectively. In experiment [1], the GI50 amounted to 0.0408 µM.

`CCc1cc(Nc2ncc(Cl)c(Nc3ccc(-c4cnn5c4OCCC5)cc3P(C)(C)=O)n2)c(OC)cc1N1CCC(N2CCN(C)CC2)CC1` [Compound 7, (2-((5-Chloro-2-((5-ethyl-2-methoxy-4-(4-(4-methylpiperazin-1-yl)piperidin-1-yl)phenyl)amino)pyrimidin-4-yl)amino)-5-(6,7-dihydro-5H-pyrazolo[5,1-b][1,3]nitrox-3-yl)phenyl)dimethylphosphine oxide]: the IC50 came to 0.0005 µM at EGFRΔ19del/T790M/C797S and 0.187 µM on IGF1R. Also, the GI50 in experiment [1] worked out at 0.0462 µM.

Take `CCc1cc(Nc2ncc(Cl)c(Nc3ccc(-c4cnn5cnccc45)cc3P(C)(C)=O)n2)c(OC)cc1N1CCC(N2CCN(C)CC2)CC1` [Compound 23, (2-((5-Chloro-2-((5-ethyl-2-methoxy-4-(4-(4-methylpiperazin-1-yl)piperidin-1-yl)phenyl)amino)pyrimidin-4-yl)amino)-5-(pyrazolo[1,5-c]pyrimidin-3-yl)phenyl)dimethylphosphine oxide]: the half-maximal inhibitory concentration (IC50) at EGFRΔ19del/T790M/C797S was found to be 0.0005 µM; on IGF1R it was 0.261 µM; at EGFR WT, 0.0189 µM. The GI50 in experiment [1] was 0.0429 µM.

For the compound `CCc1cc(Nc2ncc(Br)c(Nc3ccc(-c4ccc(N(C)C)nn4)cc3P(C)(C)=O)n2)c(OC)cc1N1CCC(N2CCN(C)CC2)CC1` [Compound 77, (2-((5-Bromo-2-((5-ethyl-2-methoxy-4-(4-(4-methylpiperazin-1-yl)piperidin-1-yl)phenyl)amino]pyrimidin-4-yl)amino)-5-(6-(dimethylamino)pyridazin-3-yl)phenyl)dimethylphosphine oxide], in the experiment with A431, the concentration for half-maximal inhibition (IC50) is above 10 µM. Besides, in experiment [1], the GI50 worked out at 0.0272 µM.

With `CCc1cc(Nc2ncc(Cl)c(Nc3ccc(-c4cncs4)cc3P(C)(C)=O)n2)c(OC)cc1N1CCC(N2CCN(C)CC2)CC1` [Compound 15, (2-((5-Chloro-2-((5-ethyl-2-methoxy-4-(4-(4-methylpiperazin-1-yl)piperidin-1-yl)phenyl)amino)pyrimidin-4-yl)amino)-5-(thiazol-5-yl)phenyl)dimethylphosphine oxide], the concentration for half-maximal inhibition (IC50) against EGFRΔ19del/T790M/C797S worked out at 0.0003 µM; on IGF1R it was 0.0665 µM. In experiment [1], the GI50 came out at 0.0161 µM.

Turning to `CCc1cc(Nc2ncc(Cl)c(Nc3ccc(-c4cnc(C)nc4)cc3P(C)(C)=O)n2)c(OC)cc1N1CCC(N2CCN(C)CC2)CC1` [Compound 24, (2-((5-Chloro-2-((5-ethyl-2-methoxy-4-(4-(4-methylpiperazin-1-yl)piperidin-1-yl)phenyl)amino)pyrimidin-4-yl)amino)-5-(2-methylpyrimidin-5-yl)phenyl)dimethylphosphine oxide], the IC50 at EGFRΔ19del/T790M/C797S was 0.0007 µM; on IGF1R it was 0.264 µM; against EGFR WT, 0.0669 µM. Further, in experiment [1], the GI50 was 0.044 µM.

In the case of `COc1cc(N2CCC(N3CCCCC3)CC2)c(-c2cnn(C)c2)cc1Nc1ncc(Br)c(Nc2ccc(-c3ccccc3)cc2P(C)(C)=O)n1` [Compound K-100], the half-inhibitory concentration (IC50) in the experiment with A431 (Homo sapiens, A-431, 72 h) is 0.0996 µM. Besides, the GI50 in experiment [1] was 0.0021 µM.

Take `CCc1cc(Nc2ncc(Br)c(Nc3ccc(-c4nccnc4OC)cc3P(C)(C)=O)n2)c(OC)cc1N1CCC(N2CCN(C)CC2)CC1` [Compound 72, (2-((5-Bromo-2-((5-ethyl-2-methoxy-4-(4-(4-methylpiperazin-1-yl)piperidin-1-yl)phenyl)(amino)amino]pyrimidin-4-yl)amino)-5-(3-methoxypyrazin-2-yl)phenyl)dimethylphosphine oxide]: the IC50 in the experiment with A431 (Homo sapiens, A-431, 72 h) is above 10 µM. For the same compound, the GI50 in experiment [1] was found to be 0.0294 µM.

`CCc1cc(Nc2ncc(Br)c(Nc3ccc(-c4c(C)cnn4C)cc3P(C)(C)=O)n2)c(OC)cc1N1CCC(N2CCN(C)CC2)CC1` [Compound 54]: the half-inhibitory concentration (IC50) at EGFRΔ19del/T790M/C797S is 0.0006 µM; on IGF1R, 0.624 µM; against EGFR WT, 0.0422 µM.

With `CCc1cc(Nc2ncc(Cl)c(Nc3ccc(-c4ccnc5c4ccn5C)cc3P(C)(C)=O)n2)c(OC)cc1N1CCC(N2CCN(C)CC2)CC1` [Compound 56, (2-((5-Chloro-2-((5-ethyl-2-methoxy-4-(4-(4-methylpiperazin-1-yl)piperidin-1-yl)phenyl)amino)pyrimidin-4-yl)amino)-5-(1-methyl-1H-pyrrolo[2,3-b]pyridin-4-yl)phenyl)dimethylphosphine oxide], the IC50 came out at 0.0024 µM on EGFRΔ19del/T790M/C797S, 0.886 µM at IGF1R and 0.0725 µM against EGFR WT.

In the case of `CCc1cc(Nc2ncc(Br)c(Nc3ccc(-c4cn(C)cn4)cc3P(C)(C)=O)n2)c(OC)cc1N1CCC(N2CCN(C)CC2)CC1` [Compound 68, (2-((5-Bromo-2-((5-ethyl-2-methoxy-4-(4-(4-methylpiperazin-1-yl)piperidin-1-yl)phenyl)amino)pyrimidin-4-yl)amino)-5-(1-methyl-1H-imidazol-4-yl)phenyl)dimethylphosphine oxide], the IC50 against EGFRΔ19del/T790M/C797S stood at 0.0009 µM; at IGF1R, 0.663 µM; on EGFR WT it was 0.0847 µM.

Regarding `CCc1cc(Nc2ncc(Br)c(Nc3ccc(-c4cc5cc(C#N)ccc5[nH]4)cc3P(C)(C)=O)n2)c(OC)cc1N1CCC(N2CCN(C)CC2)CC1` [Compound 43], the results for the IC50 against EGFRΔ19del/T790M/C797S, at IGF1R and against EGFR WT were 0.0025 µM, 0.748 µM and 0.0825 µM, respectively.
